Assays:
Experiment in all cases: biochemical
Set-up in all cases: KINOMEscan active-site-directed competition binding panel, 468 kinases, percent of DMSO control at 1 uM
Details in all cases: KINOMEscan binding, percent of DMSO control; read-out: Ctrl%
MEK2 = biological target: T1, MEK2 (Homo sapiens, UniProt P36507)
T1 construct: gene MAP2K2

PCTK2 = biological target: T2, PCTK2 (Homo sapiens, UniProt Q00537)
T2 construct: gene CDK17

MYLK = MYLK (Homo sapiens, UniProt Q15746)
CIT = CIT (Homo sapiens, UniProt O14578)
KIT(D816H) = KIT(D816H) (Homo sapiens, UniProt P10721, D816H)
CDK8 = CDK8 (Homo sapiens, UniProt P49336)
AMPK-alpha1 = biological target: T3, AMPK-alpha1 (Homo sapiens, UniProt Q13131)
T3 construct: gene PRKAA1

ICK = biological target: T4, ICK (Homo sapiens, UniProt Q9UPZ9)
T4 construct: gene CILK1

FLT3(D835H) = FLT3(D835H) (Homo sapiens, UniProt P36888, D835H)
DAPK1 = DAPK1 (Homo sapiens, UniProt P53355)
GRK1 = GRK1 (Homo sapiens, UniProt Q15835)
PDGFRA = PDGFRA (Homo sapiens, UniProt P16234)
MTOR = MTOR (Homo sapiens, UniProt P42345)
DCAMKL1 = biological target: T5, DCAMKL1 (Homo sapiens, UniProt O15075)
T5 construct: gene DCLK1

MLK2 = biological target: T6, MLK2 (Homo sapiens, UniProt Q02779)
T6 construct: gene MAP3K10

FLT3-autoinhibited = FLT3-autoinhibited (Homo sapiens, UniProt P36888)
NEK5 = NEK5 (Homo sapiens, UniProt Q6P3R8)
SRPK1 = SRPK1 (Homo sapiens, UniProt Q96SB4)
MERTK = MERTK (Homo sapiens, UniProt Q12866)
MAP3K15 = MAP3K15 (Homo sapiens, UniProt Q6ZN16)
[1] = biological target: T7, RSK3(Kin.Dom.2-C-terminal) (Homo sapiens, UniProt Q15349)
T7 construct: gene RPS6KA2; Kin.Dom.2-C-terminal

ERK2 = biological target: T8, ERK2 (Homo sapiens, UniProt P28482)
T8 construct: gene MAPK1

TAOK3 = TAOK3 (Homo sapiens, UniProt Q9H2K8)
PIK3C2G = PIK3C2G (Homo sapiens, UniProt O75747)

Sequence of MERTK (Q12866 whole entry): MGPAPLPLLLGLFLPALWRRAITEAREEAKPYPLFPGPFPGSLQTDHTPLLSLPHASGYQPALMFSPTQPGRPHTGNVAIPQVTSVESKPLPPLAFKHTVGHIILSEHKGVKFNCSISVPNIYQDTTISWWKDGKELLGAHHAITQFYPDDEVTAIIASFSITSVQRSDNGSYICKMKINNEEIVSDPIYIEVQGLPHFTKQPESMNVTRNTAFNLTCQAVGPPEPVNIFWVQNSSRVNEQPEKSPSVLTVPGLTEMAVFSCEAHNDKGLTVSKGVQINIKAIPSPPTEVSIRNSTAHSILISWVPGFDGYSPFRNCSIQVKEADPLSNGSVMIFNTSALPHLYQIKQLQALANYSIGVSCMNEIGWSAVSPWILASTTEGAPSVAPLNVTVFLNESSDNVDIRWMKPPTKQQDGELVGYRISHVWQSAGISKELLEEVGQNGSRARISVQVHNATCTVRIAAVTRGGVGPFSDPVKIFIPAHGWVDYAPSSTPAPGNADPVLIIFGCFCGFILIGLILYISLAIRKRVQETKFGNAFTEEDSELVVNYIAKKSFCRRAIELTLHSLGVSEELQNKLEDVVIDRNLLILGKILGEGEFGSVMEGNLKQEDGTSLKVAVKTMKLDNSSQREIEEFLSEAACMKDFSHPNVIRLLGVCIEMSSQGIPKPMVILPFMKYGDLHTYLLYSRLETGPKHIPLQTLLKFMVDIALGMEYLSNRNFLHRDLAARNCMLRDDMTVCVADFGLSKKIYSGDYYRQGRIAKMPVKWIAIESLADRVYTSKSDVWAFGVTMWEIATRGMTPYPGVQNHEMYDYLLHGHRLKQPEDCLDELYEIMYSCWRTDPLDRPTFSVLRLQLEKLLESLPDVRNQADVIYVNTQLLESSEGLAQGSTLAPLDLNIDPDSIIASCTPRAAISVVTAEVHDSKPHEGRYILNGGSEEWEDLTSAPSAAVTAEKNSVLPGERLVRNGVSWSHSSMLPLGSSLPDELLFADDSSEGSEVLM
Sequence of NEK5 (Q6P3R8 whole entry): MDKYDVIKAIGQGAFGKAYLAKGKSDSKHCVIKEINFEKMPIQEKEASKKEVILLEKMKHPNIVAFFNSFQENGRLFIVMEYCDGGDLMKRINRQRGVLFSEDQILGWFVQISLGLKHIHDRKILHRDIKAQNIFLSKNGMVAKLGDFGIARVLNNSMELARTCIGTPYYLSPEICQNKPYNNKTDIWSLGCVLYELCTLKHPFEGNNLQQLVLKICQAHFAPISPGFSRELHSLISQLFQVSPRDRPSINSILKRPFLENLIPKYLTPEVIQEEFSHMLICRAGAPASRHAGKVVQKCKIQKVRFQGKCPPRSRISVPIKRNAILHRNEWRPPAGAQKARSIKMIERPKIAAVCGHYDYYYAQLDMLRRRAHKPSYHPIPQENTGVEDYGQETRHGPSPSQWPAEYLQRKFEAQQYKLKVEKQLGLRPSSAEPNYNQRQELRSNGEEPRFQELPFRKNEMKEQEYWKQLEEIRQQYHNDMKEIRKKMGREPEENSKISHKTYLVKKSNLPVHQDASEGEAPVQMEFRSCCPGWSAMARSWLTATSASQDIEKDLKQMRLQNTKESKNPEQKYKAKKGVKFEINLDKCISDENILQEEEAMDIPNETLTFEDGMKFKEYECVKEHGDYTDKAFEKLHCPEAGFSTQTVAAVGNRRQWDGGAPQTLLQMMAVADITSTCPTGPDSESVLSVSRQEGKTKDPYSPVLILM
T3 sequence (Q13131 whole entry): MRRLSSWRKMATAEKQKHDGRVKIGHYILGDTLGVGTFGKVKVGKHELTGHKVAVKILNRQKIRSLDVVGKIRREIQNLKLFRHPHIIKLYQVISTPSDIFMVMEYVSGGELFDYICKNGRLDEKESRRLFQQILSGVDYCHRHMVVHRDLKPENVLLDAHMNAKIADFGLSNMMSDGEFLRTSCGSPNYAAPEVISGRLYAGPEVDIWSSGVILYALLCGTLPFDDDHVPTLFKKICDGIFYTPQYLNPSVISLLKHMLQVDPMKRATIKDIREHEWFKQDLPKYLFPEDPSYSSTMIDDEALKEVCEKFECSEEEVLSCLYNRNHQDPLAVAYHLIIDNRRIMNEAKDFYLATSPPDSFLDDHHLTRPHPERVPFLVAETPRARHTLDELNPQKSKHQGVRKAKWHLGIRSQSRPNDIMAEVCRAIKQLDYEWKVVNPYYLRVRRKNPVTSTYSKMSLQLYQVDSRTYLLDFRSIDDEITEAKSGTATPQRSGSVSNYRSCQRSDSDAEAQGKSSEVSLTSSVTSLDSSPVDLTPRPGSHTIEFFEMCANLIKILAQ
T6 sequence (Q02779 whole entry): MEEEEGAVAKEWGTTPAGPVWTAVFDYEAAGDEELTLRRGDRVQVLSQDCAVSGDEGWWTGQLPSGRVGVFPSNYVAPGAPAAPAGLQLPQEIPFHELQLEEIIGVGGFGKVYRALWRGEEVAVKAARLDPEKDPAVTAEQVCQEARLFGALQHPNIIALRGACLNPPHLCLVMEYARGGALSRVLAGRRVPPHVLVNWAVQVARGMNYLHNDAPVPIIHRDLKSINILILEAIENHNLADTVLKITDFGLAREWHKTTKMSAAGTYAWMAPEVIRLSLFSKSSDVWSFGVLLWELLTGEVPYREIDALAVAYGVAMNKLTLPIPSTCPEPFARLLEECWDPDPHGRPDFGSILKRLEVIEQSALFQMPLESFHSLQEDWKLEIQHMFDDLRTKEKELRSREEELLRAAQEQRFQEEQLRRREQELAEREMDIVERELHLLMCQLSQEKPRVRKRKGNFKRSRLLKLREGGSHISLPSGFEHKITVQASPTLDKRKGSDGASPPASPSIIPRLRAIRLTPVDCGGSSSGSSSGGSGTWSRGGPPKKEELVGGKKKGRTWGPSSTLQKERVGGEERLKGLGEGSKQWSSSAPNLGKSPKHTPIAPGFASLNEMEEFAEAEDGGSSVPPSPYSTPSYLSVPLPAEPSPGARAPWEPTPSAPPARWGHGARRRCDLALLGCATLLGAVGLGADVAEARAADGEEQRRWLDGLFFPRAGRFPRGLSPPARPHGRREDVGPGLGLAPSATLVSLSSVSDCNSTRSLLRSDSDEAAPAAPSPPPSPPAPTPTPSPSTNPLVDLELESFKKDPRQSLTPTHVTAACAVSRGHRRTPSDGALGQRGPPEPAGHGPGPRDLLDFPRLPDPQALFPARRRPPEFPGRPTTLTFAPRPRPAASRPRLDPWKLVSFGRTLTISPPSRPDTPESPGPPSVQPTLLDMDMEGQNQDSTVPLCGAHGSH
Sequence of CDK8 (P49336 whole entry): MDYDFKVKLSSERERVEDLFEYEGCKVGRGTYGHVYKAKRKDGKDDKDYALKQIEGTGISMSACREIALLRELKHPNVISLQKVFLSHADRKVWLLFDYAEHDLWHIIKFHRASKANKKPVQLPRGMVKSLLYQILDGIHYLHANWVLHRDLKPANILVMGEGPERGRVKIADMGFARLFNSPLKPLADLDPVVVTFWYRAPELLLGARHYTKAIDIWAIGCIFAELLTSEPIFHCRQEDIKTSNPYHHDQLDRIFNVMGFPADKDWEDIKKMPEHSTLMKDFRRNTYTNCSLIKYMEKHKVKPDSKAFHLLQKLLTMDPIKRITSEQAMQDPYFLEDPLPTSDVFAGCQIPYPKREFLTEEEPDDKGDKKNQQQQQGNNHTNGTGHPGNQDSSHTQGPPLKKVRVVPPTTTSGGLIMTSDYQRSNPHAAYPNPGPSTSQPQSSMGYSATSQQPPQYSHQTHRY
T1 sequence (P36507 whole entry): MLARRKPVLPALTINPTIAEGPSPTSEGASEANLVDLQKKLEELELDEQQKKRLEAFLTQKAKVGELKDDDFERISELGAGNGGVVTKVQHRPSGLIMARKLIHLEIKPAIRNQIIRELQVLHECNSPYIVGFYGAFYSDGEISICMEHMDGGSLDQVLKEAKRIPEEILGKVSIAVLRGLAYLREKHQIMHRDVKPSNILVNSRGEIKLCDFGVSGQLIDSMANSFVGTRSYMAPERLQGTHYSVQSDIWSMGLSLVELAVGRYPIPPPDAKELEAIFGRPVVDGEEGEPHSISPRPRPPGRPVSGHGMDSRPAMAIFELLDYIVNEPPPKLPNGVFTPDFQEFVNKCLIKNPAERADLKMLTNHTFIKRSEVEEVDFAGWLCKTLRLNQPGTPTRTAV
Sequence of TAOK3 (Q9H2K8 whole entry): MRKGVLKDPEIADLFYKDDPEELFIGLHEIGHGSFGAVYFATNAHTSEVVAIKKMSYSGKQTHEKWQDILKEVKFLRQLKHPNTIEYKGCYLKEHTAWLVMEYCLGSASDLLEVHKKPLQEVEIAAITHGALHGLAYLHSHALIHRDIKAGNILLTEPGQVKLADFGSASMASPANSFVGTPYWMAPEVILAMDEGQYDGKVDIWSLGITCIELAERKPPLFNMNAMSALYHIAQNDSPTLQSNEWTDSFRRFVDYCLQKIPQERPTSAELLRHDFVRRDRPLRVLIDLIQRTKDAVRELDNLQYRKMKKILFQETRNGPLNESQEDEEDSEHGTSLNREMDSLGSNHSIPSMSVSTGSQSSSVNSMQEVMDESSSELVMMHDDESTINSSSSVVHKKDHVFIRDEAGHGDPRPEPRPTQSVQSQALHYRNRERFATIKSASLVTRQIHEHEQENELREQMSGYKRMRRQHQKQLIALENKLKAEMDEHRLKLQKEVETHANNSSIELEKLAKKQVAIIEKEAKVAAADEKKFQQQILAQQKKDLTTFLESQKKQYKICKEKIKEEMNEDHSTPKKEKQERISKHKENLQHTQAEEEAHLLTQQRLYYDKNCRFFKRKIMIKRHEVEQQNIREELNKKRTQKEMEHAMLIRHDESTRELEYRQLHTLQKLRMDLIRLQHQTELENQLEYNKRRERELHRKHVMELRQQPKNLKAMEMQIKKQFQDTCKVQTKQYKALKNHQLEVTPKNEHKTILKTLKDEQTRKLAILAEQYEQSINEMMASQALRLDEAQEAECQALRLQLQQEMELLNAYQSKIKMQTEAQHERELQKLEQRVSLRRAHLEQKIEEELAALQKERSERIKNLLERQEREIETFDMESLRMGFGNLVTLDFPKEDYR

## Cc1ccc(NC(=O)c2cccc(C(F)(F)F)c2)cc1Nc1cc(-c2cccnc2)nc2[nH]ccc12 [HZX-02-059]
MEK2
  remaining binding at 1 µM: 100%
PCTK2
  remaining binding at 1 µM: 100%
MYLK
  remaining binding at 1 µM: 100%
CIT
  remaining binding at 1 µM: 64%
KIT(D816H)
  remaining binding at 1 µM: 100%
CDK8
  remaining binding at 1 µM: 91%
AMPK-alpha1
  remaining binding at 1 µM: 97%
ICK
  remaining binding at 1 µM: 77%
FLT3(D835H)
  remaining binding at 1 µM: 92%
DAPK1
  remaining binding at 1 µM: 93%
GRK1
  remaining binding at 1 µM: 77%
PDGFRA
  remaining binding at 1 µM: 66%
MTOR
  remaining binding at 1 µM: 99%
DCAMKL1
  remaining binding at 1 µM: 93%
MLK2
  remaining binding at 1 µM: 97%
FLT3-autoinhibited
  remaining binding at 1 µM: 98%
NEK5
  remaining binding at 1 µM: 100%
SRPK1
  remaining binding at 1 µM: 95%
MERTK
  remaining binding at 1 µM: 86%
MAP3K15
  remaining binding at 1 µM: 53%
[1]
  remaining binding at 1 µM: 89%
ERK2
  remaining binding at 1 µM: 100%
TAOK3
  remaining binding at 1 µM: 100%
PIK3C2G
  remaining binding at 1 µM: 86%
